{"source": "ChEMBL document CHEMBL5550122", "about": "“Photodynamic anticancer activity evaluation of novel 5-aminolevulinic acid and 3-hydroxypyridinone conjugates” (Bioorg Med Chem, 2024)", "note": "The source made the active and inactive calls. The rule behind the calls is not given here.", "data": [{"test_system": "A-375", "test": "Cytotoxicity against human A-375 cells assessed as reduction in cell viability preincubated for 4 hrs under dark condition followed by irradiation with blue light at 2.5 J.cm^-2 energy level for 5 mins and measured after 18 hrs by MTT assay", "format": "functional, cell-based", "details": "A-375, light or radiation study", "units": {"IC50": "µM"}, "values": [{"smiles": "CCCCCCCCn1c(C)cc(=O)c(O)c1COC(=O)CCC(=O)CN.Cl", "IC50": 38.5}, {"smiles": "CCCCCn1c(C)cc(=O)c(O)c1COC(=O)CCC(=O)CN.Cl", "IC50": 46.4}, {"smiles": "Cc1cc(=O)c(O)c(COC(=O)CCC(=O)CN)n1CCc1ccccc1.Cl", "IC50": 47.3}, {"smiles": "CCOCCCn1c(C)cc(=O)c(O)c1COC(=O)CCC(=O)CN.Cl", "IC50": 52.2}, {"smiles": "NCC(=O)CCC(=O)O", "note": "[AMINOLEVULINIC ACID]", "IC50": "> 100"}]}, {"test_system": "HeLa", "test": "Cytotoxicity against human HeLa cells assessed as reduction in cell viability preincubated for 4 hrs under dark condition followed by irradiation with blue light at 2.5 J.cm^-2 energy level for 5 mins and measured after 18 hrs by MTT assay", "format": "functional, cell-based", "details": "light or radiation study", "units": {"IC50": "µM"}, "values": [{"smiles": "CCCCCCCCn1c(C)cc(=O)c(O)c1COC(=O)CCC(=O)CN.Cl", "IC50": 44.2}, {"smiles": "CCCCCn1c(C)cc(=O)c(O)c1COC(=O)CCC(=O)CN.Cl", "IC50": 47.5}, {"smiles": "Cc1cc(=O)c(O)c(COC(=O)CCC(=O)CN)n1CCc1ccccc1.Cl", "IC50": 30}, {"smiles": "CCOCCCn1c(C)cc(=O)c(O)c1COC(=O)CCC(=O)CN.Cl", "IC50": 43.9}, {"smiles": "NCC(=O)CCC(=O)O", "note": "[AMINOLEVULINIC ACID]", "IC50": "> 100"}]}, {"test_system": "A-375", "test": "Cytotoxicity against human A-375 cells assessed as reduction in cell viability at 100 uM incubated for 4 hrs under dark condition by MTT assay", "format": "functional, cell-based", "details": "not given", "values": [{"smiles": "CCCCCn1c(C)cc(=O)c(O)c1COC(=O)CCC(=O)CN.Cl", "Activity": "inactive"}, {"smiles": "Cc1cc(=O)c(O)c(COC(=O)CCC(=O)CN)n1CCc1ccccc1.Cl", "Activity": "inactive"}, {"smiles": "CCOCCCn1c(C)cc(=O)c(O)c1COC(=O)CCC(=O)CN.Cl", "Activity": "inactive"}]}, {"test_system": "HeLa", "test": "Cytotoxicity against human HeLa cells assessed as reduction in cell viability at 100 uM incubated for 4 hrs under dark condition by MTT assay", "format": "functional, cell-based", "details": "not given", "values": [{"smiles": "CCCCCCCCn1c(C)cc(=O)c(O)c1COC(=O)CCC(=O)CN.Cl", "Activity": "Active"}, {"smiles": "CCCCCn1c(C)cc(=O)c(O)c1COC(=O)CCC(=O)CN.Cl", "Activity": "inactive"}, {"smiles": "Cc1cc(=O)c(O)c(COC(=O)CCC(=O)CN)n1CCc1ccccc1.Cl", "Activity": "inactive"}, {"smiles": "CCOCCCn1c(C)cc(=O)c(O)c1COC(=O)CCC(=O)CN.Cl", "Activity": "inactive"}]}, {"test_system": "MCF7", "test": "Cytotoxicity against human MCF7 cells assessed as reduction in cell viability preincubated for 4 hrs under dark condition in presence of deferiprone followed by irradiation with blue light at 2.5 J.cm^-2 energy level for 5 mins and measured after 18 hrs by MTT assay", "format": "functional, cell-based", "details": "MCF7, light or radiation study", "units": {"IC50": "µM"}, "values": [{"smiles": "NCC(=O)CCC(=O)O", "note": "[AMINOLEVULINIC ACID]", "IC50": 65}]}, {"test_system": "not listed separately", "test": "Drug metabolism assessed as esterase (unknown origin) mediated hydrolysis by measuring 5-Aminolevulinic acid formation", "format": "ADME", "details": "human", "values": [{"smiles": "CCCCCCCCn1c(C)cc(=O)c(O)c1COC(=O)CCC(=O)CN.Cl", "Drug metabolism": "Metabolite_Detected"}, {"smiles": "CCCCCn1c(C)cc(=O)c(O)c1COC(=O)CCC(=O)CN.Cl", "Drug metabolism": "Metabolite_Detected"}, {"smiles": "Cc1cc(=O)c(O)c(COC(=O)CCC(=O)CN)n1CCc1ccccc1.Cl", "Drug metabolism": "Metabolite_Detected"}, {"smiles": "CCOCCCn1c(C)cc(=O)c(O)c1COC(=O)CCC(=O)CN.Cl", "Drug metabolism": "Metabolite_Detected"}]}, {"test_system": "not listed separately", "test": "Prodrug release in human MCF7 cells assessed as 3-[(1Z,4Z,9Z,15Z)-7-(2-carboxyethyl)-3,8,12,17-tetramethyl-13,18-divinyl-21,23-dihydroporphyrin-2-yl]propanoic acid release by measuring increase in fluorescence intensity at 20 to 80 uM by microplate reader analysis", "format": "ADME, cell-based", "details": "mcf7, 80 µM, dose 20-80 µM", "values": [{"smiles": "CCCCCCCCn1c(C)cc(=O)c(O)c1COC(=O)CCC(=O)CN.Cl", "Drug metabolism": "Metabolite_Detected"}, {"smiles": "CCCCCn1c(C)cc(=O)c(O)c1COC(=O)CCC(=O)CN.Cl", "Drug metabolism": "Metabolite_Detected"}, {"smiles": "Cc1cc(=O)c(O)c(COC(=O)CCC(=O)CN)n1CCc1ccccc1.Cl", "Drug metabolism": "Metabolite_Detected"}, {"smiles": "CCOCCCn1c(C)cc(=O)c(O)c1COC(=O)CCC(=O)CN.Cl", "Drug metabolism": "Metabolite_Detected"}]}, {"test_system": "not listed separately", "test": "Prodrug release in human Hela cells assessed as 3-[(1Z,4Z,9Z,15Z)-7-(2-carboxyethyl)-3,8,12,17-tetramethyl-13,18-divinyl-21,23-dihydroporphyrin-2-yl]propanoic acid release by measuring increase in fluorescence intensity at 20 to 80 uM by microplate reader analysis", "format": "ADME, cell-based", "details": "dose 20-80 µM", "values": [{"smiles": "CCCCCCCCn1c(C)cc(=O)c(O)c1COC(=O)CCC(=O)CN.Cl", "Drug metabolism": "Metabolite_Detected"}, {"smiles": "CCCCCn1c(C)cc(=O)c(O)c1COC(=O)CCC(=O)CN.Cl", "Drug metabolism": "Metabolite_Detected"}, {"smiles": "Cc1cc(=O)c(O)c(COC(=O)CCC(=O)CN)n1CCc1ccccc1.Cl", "Drug metabolism": "Metabolite_Detected"}, {"smiles": "CCOCCCn1c(C)cc(=O)c(O)c1COC(=O)CCC(=O)CN.Cl", "Drug metabolism": "Metabolite_Detected"}]}, {"test_system": "MCF7", "test": "Cytotoxicity against human MCF7 cells assessed as reduction in cell viability at 100 uM incubated for 4 hrs under dark condition by MTT assay", "format": "functional, cell-based", "details": "not given", "values": [{"smiles": "CCCCCn1c(C)cc(=O)c(O)c1COC(=O)CCC(=O)CN.Cl", "Activity": "inactive"}, {"smiles": "Cc1cc(=O)c(O)c(COC(=O)CCC(=O)CN)n1CCc1ccccc1.Cl", "Activity": "inactive"}, {"smiles": "CCOCCCn1c(C)cc(=O)c(O)c1COC(=O)CCC(=O)CN.Cl", "Activity": "inactive"}]}, {"test_system": "not listed separately", "test": "Prodrug release in human A-375 cells assessed as 3-[(1Z,4Z,9Z,15Z)-7-(2-carboxyethyl)-3,8,12,17-tetramethyl-13,18-divinyl-21,23-dihydroporphyrin-2-yl]propanoic acid release by measuring increase in fluorescence intensity at 20 to 80 uM by microplate reader analysis", "format": "ADME, cell-based", "details": "a-375, 80 µM, dose 20-80 µM", "values": [{"smiles": "CCCCCCCCn1c(C)cc(=O)c(O)c1COC(=O)CCC(=O)CN.Cl", "Drug metabolism": "Metabolite_Detected"}, {"smiles": "CCCCCn1c(C)cc(=O)c(O)c1COC(=O)CCC(=O)CN.Cl", "Drug metabolism": "Metabolite_Detected"}, {"smiles": "Cc1cc(=O)c(O)c(COC(=O)CCC(=O)CN)n1CCc1ccccc1.Cl", "Drug metabolism": "Metabolite_Detected"}, {"smiles": "CCOCCCn1c(C)cc(=O)c(O)c1COC(=O)CCC(=O)CN.Cl", "Drug metabolism": "Metabolite_Detected"}]}, {"test_system": "A-375", "test": "Cytotoxicity against human A-375 cells assessed as reduction in cell viability preincubated for 4 hrs under dark condition in presence of deferiprone followed by irradiation with blue light at 2.5 J.cm^-2 energy level for 5 mins and measured after 18 hrs by MTT assay", "format": "functional, cell-based", "details": "A-375, light or radiation study", "units": {"IC50": "µM"}, "values": [{"smiles": "NCC(=O)CCC(=O)O", "note": "[AMINOLEVULINIC ACID]", "IC50": 27.2}]}, {"test_system": "MCF7", "test": "Cytotoxicity against human MCF7 cells assessed as reduction in cell viability preincubated for 4 hrs under dark condition followed by irradiation with blue light at 2.5 J.cm^-2 energy level for 5 mins and measured after 18 hrs by MTT assay", "format": "functional, cell-based", "details": "MCF7, light or radiation study", "units": {"IC50": "µM"}, "values": [{"smiles": "CCCCCCCCn1c(C)cc(=O)c(O)c1COC(=O)CCC(=O)CN.Cl", "IC50": 48.9}, {"smiles": "CCCCCn1c(C)cc(=O)c(O)c1COC(=O)CCC(=O)CN.Cl", "IC50": 45.8}, {"smiles": "Cc1cc(=O)c(O)c(COC(=O)CCC(=O)CN)n1CCc1ccccc1.Cl", "IC50": 67.7}, {"smiles": "CCOCCCn1c(C)cc(=O)c(O)c1COC(=O)CCC(=O)CN.Cl", "IC50": 64.7}, {"smiles": "NCC(=O)CCC(=O)O", "note": "[AMINOLEVULINIC ACID]", "IC50": "> 100"}]}, {"test_system": "HeLa", "test": "Cytotoxicity against human HeLa cells assessed as reduction in cell viability preincubated for 4 hrs under dark condition in presence of deferiprone followed by irradiation with blue light at 2.5 J.cm^-2 energy level for 5 mins and measured after 18 hrs by MTT assay", "format": "functional, cell-based", "details": "light or radiation study", "units": {"IC50": "µM"}, "values": [{"smiles": "NCC(=O)CCC(=O)O", "note": "[AMINOLEVULINIC ACID]", "IC50": 61.8}]}, {"test_system": "not listed separately", "test": "Drug metabolism assessed as esterase (unknown origin) mediated hydrolysis by measuring hydroxypyridinone formation", "format": "ADME", "details": "human", "values": [{"smiles": "CCCCCCCCn1c(C)cc(=O)c(O)c1COC(=O)CCC(=O)CN.Cl", "Drug metabolism": "Metabolite_Detected"}, {"smiles": "CCCCCn1c(C)cc(=O)c(O)c1COC(=O)CCC(=O)CN.Cl", "Drug metabolism": "Metabolite_Detected"}, {"smiles": "Cc1cc(=O)c(O)c(COC(=O)CCC(=O)CN)n1CCc1ccccc1.Cl", "Drug metabolism": "Metabolite_Detected"}, {"smiles": "CCOCCCn1c(C)cc(=O)c(O)c1COC(=O)CCC(=O)CN.Cl", "Drug metabolism": "Metabolite_Detected"}]}]}
